This note sets out measurements from patent US9309263B2, “Fused multi-cyclic sulfone compounds as inhibitors of beta-secretase and methods of use thereof” (AMGEN INC., priority 2013, dated 2016).

Experiment [1] has as its target Beta Secretase enzyme (BACE) (Homo sapiens, UniProt P56817). The experiment can be described thus: In vitro enzymatic BACE FRET assay. The class given is biochemical. The settings on record: read-out: BACE1 FRET assay IC50. Summed up: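 Cleavage of a quenched 50 nM FRET peptide substrate, read as fluorescence (excitation 488 nm, […]) after 1 h and Tris quench to neutrality. Buffer: 0.05 M acetate pH 4.2 with 10% DMSO and 100 uM genapol. Inhibitor dilutions were pre-incubated 1 h with 0.2 nM enzyme.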

In the next experiment the target is Cathepsin D (Cat D) (Homo sapiens, UniProt P07339). The experiment can be described thus: In vitro enzymatic Cathepsin D (Cat D) FRET assay. To be noted: read-out: CatD IC50. It is filed as biochemical. Summed up: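 FRET peptide substrate (20 nM) is cleaved by CHO-derived recombinant enzyme (9 nM) for 1 h after a 1 h inhibitor pre-incubation, at pH 3.5 in citrate buffer with 5 mM CHAPS and 10% DMSO. Tris addition ends the reaction; fluorescence measured at 500 nm excitation, 580 nm emission.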

Experiment [2] has as its system Aβ 40 in conditioned medium of cells stably expressing Amyloid Precursor Protein (APP). Nature of the experiment: In vitro BACE cell-based assay (Aβ 40 sandwich ELISA). To be noted: Homo sapiens, HEK293. Summed up: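 Aβ40 in conditioned medium measured by pAb40/biotin-6E10 sandwich ELISA with time-resolved europium fluorescence, after 24 h exposure of stable APP cells to compounds (10-point series starting 100 μM or 10 μM; 0.1% DMSO). IC50 fitted from percent of control against concentration.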
(ELISA stands for enzyme-linked immunosorbent assay.)

[3] abbreviates: average IC50, in vitro enzymatic BACE FRET assay.
The mark [4] stands for this setting: average IC50, HEK cell assay, Aβ 40 readout.

The structures appear in SMILES notation. Where two headings read alike, the source gives them in different places.

Cathepsin D (Cat D), sequence (P07339 65-412, species assumed): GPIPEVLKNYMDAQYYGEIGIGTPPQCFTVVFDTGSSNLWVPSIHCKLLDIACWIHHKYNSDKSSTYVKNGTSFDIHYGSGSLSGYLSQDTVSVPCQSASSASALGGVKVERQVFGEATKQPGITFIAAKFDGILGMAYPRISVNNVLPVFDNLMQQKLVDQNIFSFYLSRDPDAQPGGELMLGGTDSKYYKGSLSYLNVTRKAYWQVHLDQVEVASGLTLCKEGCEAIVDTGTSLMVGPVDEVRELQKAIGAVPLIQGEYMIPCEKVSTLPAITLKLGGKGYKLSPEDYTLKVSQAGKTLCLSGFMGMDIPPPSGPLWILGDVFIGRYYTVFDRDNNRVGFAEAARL
Beta Secretase enzyme (BACE), sequence (P56817 46-501): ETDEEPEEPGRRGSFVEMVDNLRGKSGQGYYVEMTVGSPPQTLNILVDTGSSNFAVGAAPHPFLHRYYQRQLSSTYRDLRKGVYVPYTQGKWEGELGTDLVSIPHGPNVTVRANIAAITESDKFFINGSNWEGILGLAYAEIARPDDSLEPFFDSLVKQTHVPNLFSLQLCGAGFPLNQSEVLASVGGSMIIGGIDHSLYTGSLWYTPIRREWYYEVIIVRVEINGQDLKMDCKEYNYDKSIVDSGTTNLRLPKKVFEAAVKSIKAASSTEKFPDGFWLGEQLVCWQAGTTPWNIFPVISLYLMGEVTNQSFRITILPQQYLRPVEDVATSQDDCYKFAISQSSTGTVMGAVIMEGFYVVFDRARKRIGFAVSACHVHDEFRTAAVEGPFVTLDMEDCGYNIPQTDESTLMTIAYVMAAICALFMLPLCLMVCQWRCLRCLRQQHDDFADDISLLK

Consider `CC1(C)C(N)=N[C@]2(C)c3cc(NC(=O)c4ncc(C(F)F)cc4Cl)ccc3OCC[C@H]2S1(=O)=O` [Example 172, N-((4aR,11bR)-2-amino-3,3,11b-trimethyl-4,4-dioxido-4a,5,6,11b-tetrahydro-3H-[1]benzoxepino[4,5-b][1,4]thiazin-10-yl)-3-chloro-5-(difluoromethyl)-2-pyridinecarboxamide], for which the IC50 was 0.012 µM in experiment [1] (average IC50); greater than 400 µM on Cathepsin D (Cat D); 0.004 µM in experiment [2] (HEK cells, average IC50).

On to `Cc1cc(Cl)cnc1C(=O)Nc1ccc2c(c1)[C@@]1(C)N=C(N)C(C)(C)S(=O)(=O)[C@@H]1CCS2(=O)=O` [Example 124, N-((4aR,11bR)-2-amino-3,3,11b-trimethyl-4,4,7,7-tetraoxido-4a,5,6,11b-tetrahydro-3H-benzo[6,7]thiepino[4,5-b][1,4]thiazin-10-yl)-5-chloro-3-methylpicolinamide], for which the values for the IC50 (in experiment [1] (setting [3]); at Cathepsin D (Cat D) (Cathepsin D FRET assay); in experiment [2] (setting [4])) were 0.006 µM, greater than 1.65 µM and 0.008 µM, respectively.

`Cc1cc(C(F)(F)F)cnc1C(=O)Nc1ccc2c(c1)[C@@]1(C)N=C(N)C(C)(C)S(=O)(=O)[C@@H]1CCS2` [Example 132, N-((4aR,11bR)-2-amino-3,3,11b-trimethyl-4,4-dioxido-4a,5,6,11b-tetrahydro-3H-[1]benzothiepino[4,5-b][1,4]thiazin-10-yl)-3-methyl-5-(trifluoromethyl)-2-pyridinecarboxamide]: the IC50 was determined as 0.002 µM in experiment [1] (setting [3]), 357 µM on Cathepsin D (Cat D) (Cathepsin D FRET assay) and 0.0008 µM in experiment [2] (setting [4]).

`CC1(C)C(N)=N[C@]2(CF)c3cc(NC(=O)c4ccc(OC(F)F)cn4)ccc3OCC[C@H]2S1(=O)=O` [Example 123, N-((4aR,11bS)-2-amino-11b-(fluoromethyl)-3,3-dimethyl-4,4-dioxido-4a,5,6,11b-tetrahydro-3H-[1]benzoxepino[4,5-b][1,4]thiazin-10-yl)-5-(difluoromethoxy)-2-pyridinecarboxamide]: the IC50 in experiment [1] (setting [3]) came out at 0.019 µM; on Cathepsin D (Cat D) (Cathepsin D FRET assay) it was 4100 µM; in experiment [2] (setting [4]), 0.033 µM.

As to `Cc1cc(Cl)cnc1C(=O)Nc1ccc2c(c1)[C@@]1(C)N=C(N)C(C)(C)S(=O)(=O)[C@@H]1CC(C)(C)O2` [Example 190, N-((4aR,11bR)-2-amino-3,3,6,6,11b-pentamethyl-4,4-dioxido-4a,5,6,11b-tetrahydro-3H-[1]benzoxepino[4,5-b][1,4]thiazin-10-yl)-5-chloro-3-methyl-2-pyridinecarboxamide], the half-maximal inhibitory concentration (IC50) in experiment [1] (average IC50) worked out at 0.005 µM; on Cathepsin D (Cat D), 441 µM; in experiment [2] (HEK cells, average IC50) it was 0.002 µM.

As for `COc1cnc(C(=O)Nc2ccc3c(c2)[C@@]2(CF)N=C(N)C(C)(C)S(=O)(=O)[C@@H]2CCO3)c(C)c1` [Example 152, N-((4aR,11bS)-2-amino-11b-(fluoromethyl)-3,3-dimethyl-4,4-dioxido-4a,5,6,11b-tetrahydro-3H-[1]benzoxepino[4,5-b][1,4]thiazin-10-yl)-5-methoxy-3-methyl-2-pyridinecarboxamide], the IC50 in experiment [1] (setting [3]) was 0.031 µM; at Cathepsin D (Cat D) (Cathepsin D FRET assay) it was greater than 400 µM; in experiment [2] (setting [4]), 0.075 µM.

As to `Cc1cc(C#N)cnc1C(=O)Nc1ccc2c(c1)[C@@]1(C)N=C(N)C(C)(C)S(=O)(=O)[C@@H]1CC(C)(C)O2` [Example 99, N-((4aR,11bR)-2-amino-3,3,6,6,11b-pentamethyl-4,4-dioxido-4a,5,6,11b-tetrahydro-3H-[1]benzoxepino[4,5-b][1,4]thiazin-10-yl)-5-cyano-3-methyl-2-pyridinecarboxamide], the IC50 is 0.008 µM in experiment [1] (setting [3]), greater than 400 µM on Cathepsin D (Cat D) (Cathepsin D FRET assay) and 0.002 µM in experiment [2] (setting [4]).

As for `CC1(C)C[C@@H]2[C@](C)(N=C(N)C(C)(C)S2(=O)=O)c2cc(NC(=O)c3ncc(Cl)cc3Cl)ccc2O1` [Example 128, N-((4aR,11bR)-2-amino-3,3,6,6,11b-pentamethyl-4,4-dioxido-4a,5,6,11b-tetrahydro-3H-[1]benzoxepino[4,5-b][1,4]thiazin-10-yl)-3,5-dichloro-2-pyridinecarboxamide], the IC50 in experiment [1] (setting [3]) was 0.008 µM; on Cathepsin D (Cat D) (Cathepsin D FRET assay), 593 µM; in experiment [2] (setting [4]), 0.003 µM.

For the molecule `CC1(C)C(N)=N[C@]2(C)c3cc(Nc4nccc5cc(C#N)cnc45)ccc3CCC[C@H]2S1(=O)=O` [Example 47, 8-(((4aR,11bR)-2-amino-3,3,11b-trimethyl-4,4-dioxido-3,4a,5,6,7,11b-hexahydrobenzo[3,4]cyclohepta[1,2-b][1,4]thiazin-10-yl)amino)-1,7-naphthyridine-3-carbonitrile], the concentration for half-maximal inhibition (IC50) in experiment [1] (average IC50) came out at 0.008 µM; on Cathepsin D (Cat D), 338 µM; in experiment [2] (HEK cell, average IC50), 0.042 µM.

On to `Cc1cc(C(F)F)cnc1C(=O)Nc1ccc2c(c1)[C@@]1(C)N=C(N)C(C)(C)S(=O)(=O)[C@H]1CCC2` [Example 35, N-((4aS,11bR)-2-amino-3,3,11b-trimethyl-4,4-dioxido-3,4a,5,6,7,11b-hexahydrobenzo[3,4]cyclohepta[1,2-b][1,4]thiazin-10-yl)-5-(difluoromethyl)-3-methyl-2-pyridinecarboxamide], for which the IC50 in experiment [1] (average IC50) is 0.049 µM; at Cathepsin D (Cat D) it was greater than 400 µM; in experiment [2] (HEK cell, average IC50), 0.023 µM.

For `Cc1cc(Cl)cnc1C(=O)Nc1ccc2c(c1)[C@@]1(C)N=C(N)C(C)(C)S(=O)(=O)[C@@]1(F)CCO2` [Example 87, N-((4aS,11bR)-2-amino-4a-fluoro-3,3,11b-trimethyl-4,4-dioxido-4a,5,6,11b-tetrahydro-3H-[1]benzoxepino[4,5-b][1,4]thiazin-10-yl)-5-chloro-3-methyl-2-pyridinecarboxamide], the IC50 in experiment [1] (setting [3]) came to 0.002 µM; at Cathepsin D (Cat D) (Cathepsin D FRET assay), 279 µM; in experiment [2] (setting [4]) it was 0.008 µM.

For `COc1cnc2c(Nc3ccc4c(c3)[C@@]3(C)N=C(N)C(C)(C)S(=O)(=O)[C@@H]3CCO4)ncnc2c1` [Example 162, (4aR,11bR)-N^~10^~-(7-methoxypyrido[3,2-d]pyrimidin-4-yl)-3,3,11b-trimethyl-4a,5,6,11b-tetrahydro-3H-[1]benzoxepino[4,5-b][1,4]thiazine-2,10-diamine 4,4-dioxide], the IC50 was determined as 0.007 µM in experiment [1] (average IC50); 619 µM on Cathepsin D (Cat D); 0.009 µM in experiment [2] (HEK cells, average IC50).

Turning to `CC1(C)C(N)=N[C@]2(C)c3cc(Nc4ncccc4C#N)ccc3OCC[C@H]2S1(=O)=O` [Example 7, 2-(((4aR,11bR)-2-amino-3,3,11b-trimethyl-4,4-dioxido-4a,5,6,11b-tetrahydro-3H-[1]benzoxepino[4,5-b][1,4]thiazin-10-yl)amino)-3-pyridinecarbonitrile], the IC50 in experiment [1] (average IC50) came to 0.116 µM; on Cathepsin D (Cat D), 252 µM; in experiment [2] (HEK cell, average IC50) it was 0.124 µM.

As to `Cc1cnc(COc2cnc3c(Nc4ccc5c(c4)[C@@]4(C)N=C(N)C(C)(C)S(=O)(=O)[C@@H]4C[C@H](C)O5)nccc3n2)o1` [Example 134, (4aR,6S,11bR)-3,3,6,11b-tetramethyl-N^~10^~-(2-((5-methyl-1,3-oxazol-2-yl)methoxy)pyrido[3,4-b]pyrazin-5-yl)-4a,5,6,11b-tetrahydro-3H-[1]benzoxepino[4,5-b][1,4]thiazine-2,10-diamine 4,4-dioxide], the half-inhibitory concentration (IC50) in experiment [1] (setting [3]) was 0.003 µM; at Cathepsin D (Cat D) (Cathepsin D FRET assay), greater than 44.4 µM; in experiment [2] (setting [4]) it was 0.003 µM.

Usually IC50 stands for the concentration that gives 50% inhibition.
